Molecular target: T1, murine IP10-AP (IP-10 alkaline phosphatase fusion protein) (UniProt P05187+P17515)
T1 construct: made in house; host or cells: NIH-3T3 clone 18.G5 (conditioned medium)
Assay: glycosaminoglycan inhibition of IP10-AP binding to A20 B cells
Conditions: 15 nM mIP10-AP, 2 hours on ice; for inhibition of IP10-AP binding: at a concentration 100× below 1 mg/ml
Protocol: 107 A20 cells were incubated with 15 nM mIP10-AP in the presence of the indicated concentrations of heparin (H), heparan sulfate (HS), chondroitin sulfate B (CSB) and chondroitin sulfate A (CSA) for 2 hours on ice. Cells were then washed and bound IP10-AP assayed.
Binding Assays. For non-adherent cells, […] were washed 1× with ice-cold binding buffer (HBSS/10 mM Hepes/0.1% ETSA) and resuspended in the indicated concentration of IP10-AP and competitors in a total of […] ice-cold binding buffer. Binding was carried out for 2 hrs on ice with occasional mixing. Cells were washed 5× with ice cold binding buffer by repeated centrifugation at 4° C. Cell bound AP activity was determined by lysing cells in […] 10 mM Tris (pH 8.0)/1% Triton X-100, heating at 65° C. for 10 min to inactivate cellular alkaline phosphatase, and then centrifuging at 14,000×g for 10 min. 50 ml of the soluble lysate was then mixed with 50 ml 2× SEAP buffer in a 96 well plate at room temperature and the colormetric product was assayed in a kinetic plate reader at A405. For adherent cells with higher numbers of binding sites, binding was determined in 6 well cluster plates. Cells were washed 2× with ice-cold binding buffer and incubated with the indicated concentration of IP10-AP and competitor in a total of 500 ml of ice-cold binding buffer for 2 hrs in the cold room on a rocker platform. […] Non-specific binding was determined in one of two ways. For the calculation of the equilibrium constant, non-specific binding was determined by adding […] at each concentration of IP10-AP and performing the binding experiments in parallel exactly as described above. Specific binding was determined by subtracting background from total binding. Specific binding data was analyzed with the binding equation B=(Bmax×F)/(Kd+F) (where B is bound ligand and F is free ligand) (28) using the program KaleidaGraph on a Macintosh computer. […] 125I-IP10 binding to cells was performed essentially as described above for IP10-AP binding except the cell pellet with bound IP-10 was counted in a gamma-counter. […]

T1 sequence (P17515+P05187 fused): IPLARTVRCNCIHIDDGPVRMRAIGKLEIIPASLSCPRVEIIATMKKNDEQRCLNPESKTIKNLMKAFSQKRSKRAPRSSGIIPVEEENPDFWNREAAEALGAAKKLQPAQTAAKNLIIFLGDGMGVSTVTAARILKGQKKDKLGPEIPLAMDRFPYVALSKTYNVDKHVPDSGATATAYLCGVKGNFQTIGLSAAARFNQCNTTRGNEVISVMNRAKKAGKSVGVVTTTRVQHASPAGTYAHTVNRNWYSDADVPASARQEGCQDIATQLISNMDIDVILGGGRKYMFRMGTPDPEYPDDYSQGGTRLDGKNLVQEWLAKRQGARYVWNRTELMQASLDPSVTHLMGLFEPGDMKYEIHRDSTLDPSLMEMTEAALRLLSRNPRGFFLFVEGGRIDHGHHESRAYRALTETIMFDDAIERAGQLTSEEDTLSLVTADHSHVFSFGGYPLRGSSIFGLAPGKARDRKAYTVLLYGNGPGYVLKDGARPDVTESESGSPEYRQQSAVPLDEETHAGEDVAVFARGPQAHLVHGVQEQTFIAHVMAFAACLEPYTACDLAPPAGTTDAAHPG

| inhibition of IP10-AP binding | effect on IP10-AP binding (1 mg/ml) | Substance |
| --- | --- | --- |
| complete inhibition | – | heparin |
| – | no effect | chondroitin sulfate A |
| complete inhibition | – | heparan sulfate |
